Laboratory results: patent US12070472B2, “Treatment of drug resistant proliferative diseases with telomerase mediated telomere altering compounds” (The Board of Regents of the University of Texas System, priority 2016, dated 2024)

How the values were obtained:
HCT116 = experiment: GI 50 determination, HCT116; assay type: cell-based; details: Homo sapiens, HCT-116
Procedure: (§1) Cells of each type listed in Table 2 were seeded in chamber slides.

[1] = test system: A549 human lung cancer cells; experiment: Tumor growth in xenograft animal model with A549 cells; assay type: in vivo, mice; details: 2.5 mg/kg every day
Procedure: Doses of 2.5 mg/kg of 6-thio-dG and 2.5 mg/kg of 6-thio-G were injected every day into mice after tumor implantation and providing time for tumor initiation. DMSO injections were used for the control. The volume of the tumor was measured.

HCC4017 = experiment: GI 50 determination, HCC4017; assay type: cell-based; details: Homo sapiens
Procedure: as §1

H2882 = experiment: GI 50 determination, H2882; assay type: cell-based; details: Homo sapiens, NCI-H2882
Procedure: as §1

HCC2429 = experiment: GI 50 determination, HCC2429; assay type: cell-based; details: Homo sapiens
Procedure: as §1

telomerase = molecular target: T1, telomerase (Homo sapiens, UniProt O14746); experiment: Telomerase activity by TRAP assay in treated HCT116 cells; assay type: cell-based; details: HCT116 cells treated with 1 and 10 μM every 3 days for 12 weeks
T1 construct: endogenous in cells; host or cells: HCT116 human colon cancer cells (lysate)
Procedure: Telomerase activity was measured by the TRAP assay (Telomeric Repeat Amplification Protocol as described in Shay J. W. and Bacchetti S., “A survey of telomerase activity in human cancer,” European Journal of Cancer 1997; 33:787-91.). Briefly, HCT116 cells were treated with 1 or 10 μM 6-thio-dG for 1-12 weeks. 1×10^5 cells were collected and lysed with ice-cold NP-40 lysis buffer (10 mM Tris-HCl pH 8.0, 1.0 mM MgCl2, 1 mM EDTA, 1% NP-40, 0.25 mM sodium deoxycholate, 10% glycerol, 150 mM NaCl, 5 mM β-mercaptoethanol) for 30 min. One microliter cellular lysate for 2500 cells was used for each reaction. Hela cells were used as a positive control and lysis buffer was used as a negative control. Samples were prepared and then the telomerase extension products were amplified using PCR (95° C. for 5 min to inactivate telomerase, then 95° C. for 30 sec, 52° C. for 30 sec, 72° C. for 30 sec; 24 cycles). Samples were run on a 10% non-denaturating acrylamide gel and visualized using a Typhoon PhosphorImager scanner system (Molecular Dynamics, GE Healthcare, Piscataway, NJ) that is capable of reading Cy5 fluorescence.

BJ cells = experiment: Telomere dysfunction induced foci (TIF) assay in normal BJ cells; assay type: cell-based, human; details: 10 μM, after 48 hours
Procedure: (§2) TIFs were quantified using Imaris software.
(§3) Normal BJ cells and […] BJ-hTERT cells were seeded in chamber slides. Following cell attachment, 6-thio-dG (10 μM) and 6-thio-G (10 μM) were added to fresh medium of each cell type. […] A control was used for each cell type as well, where DMSO was added to fresh medium of each cell type. […] These include almost all human cancer cells and certain human diseases involving acute and chronic inflammation.

HCC827 = experiment: GI 50 determination, HCC827; assay type: cell-based; details: Homo sapiens
Procedure: as §1

H2009 = experiment: GI 50 determination, H2009; assay type: cell-based; details: Homo sapiens, NCI-H2009
Procedure: as §1

A549 = experiment: GI 50 determination, A549; assay type: cell-based; details: Homo sapiens
Procedure: as §1

H2087 = experiment: GI 50 determination, H2087; assay type: cell-based; details: Homo sapiens, NCI-H2087
Procedure: as §1

HCC515 = experiment: GI 50 determination, HCC515; assay type: cell-based; details: Homo sapiens
Procedure: as §1

BJ-hTERT cells = experiment: Telomere dysfunction induced foci (TIF) assay in BJ-hTERT cells; assay type: cell-based, human; details: 10 μM, after 48 hours
Procedure: as §2, §3

[2] = Procedure: Six WT mice were treated with 1.67 mg of 6-thio-dG/kg of body weight daily. Six WT mice were treated with 1.67 mg of 6-thio-G/kg of body weight daily. Six WT mice were treated with 5 mg of 6-thio-dG/kg of body weight daily. Six WT mice were treated with 5 mg of 6-thio-G/kg of body weight daily. The mice were given the appropriate dosage and weighed daily for 25 days.
BJ = experiment: GI 50 determination, BJ; assay type: cell-based; details: Homo sapiens; BJ normal cell line
Procedure: as §1

BJ fibroblast cells = experiment: Telomere length assay (TRF), BJ fibroblasts long-term culture; assay type: cell-based, human; details: 10 weeks, compared to untreated control
Procedure: (§4) For long-term cellular experiments, HCT116 (1,000 cells/cm^2) and BJ (10,000 cells/cm^2) cells were fed with 6-thio-dG (1, 3, 10 μM) containing medium every three days. The cells were counted and replated every week for 10-16 weeks. Additionally, HCT116 cells (1,000 cells/cm^2) were fed with 6-thio-G (1, 3, 10 μM) every three days and each week cells were counted, collected for TRF (Telomere Restriction Fragment) analysis and replated. HCT116 cells, following treatment with 10 μM 6-thio-dG for 12 weeks, were then treated with a combination of 10 μM 6-thio-dG and 3 μM GRN163L for 2-4 weeks.

HCT116 cells = details: 1 μM or 10 μM every 3 days, after 10 weeks
Procedure: as §4

HCC15 = experiment: GI 50 determination, HCC15; assay type: cell-based; details: Homo sapiens
Procedure: as §1

H1693 = experiment: Sensitization by 5-azacytidine pretreatment, H1693; assay type: cell-based, human; details: 500 nM 5-azacytidine for one week
Procedure: (§5) All three resistant cell lines were pre-treated with 500 nM of the demethylating agent 5-azacytidine for one week. Following the 5-azacytidine pretreatment, each resistant cell line was treated with 9 different concentrations (0.01 to 1000 micromolar) of 6-thio-dG for one week. Cells were then evaluation for growth/death.

H1819 = experiment: Sensitization by 5-azacytidine pretreatment, H1819; assay type: cell-based, human; details: 500 nM 5-azacytidine for one week
Procedure: as §5

H1993 cells = experiment: Sensitization by 5-azacytidine pretreatment, H1993; assay type: cell-based, human; details: 500 nM 5-azacytidine for one week
Procedure: as §5

T1 sequence (O14746 whole entry): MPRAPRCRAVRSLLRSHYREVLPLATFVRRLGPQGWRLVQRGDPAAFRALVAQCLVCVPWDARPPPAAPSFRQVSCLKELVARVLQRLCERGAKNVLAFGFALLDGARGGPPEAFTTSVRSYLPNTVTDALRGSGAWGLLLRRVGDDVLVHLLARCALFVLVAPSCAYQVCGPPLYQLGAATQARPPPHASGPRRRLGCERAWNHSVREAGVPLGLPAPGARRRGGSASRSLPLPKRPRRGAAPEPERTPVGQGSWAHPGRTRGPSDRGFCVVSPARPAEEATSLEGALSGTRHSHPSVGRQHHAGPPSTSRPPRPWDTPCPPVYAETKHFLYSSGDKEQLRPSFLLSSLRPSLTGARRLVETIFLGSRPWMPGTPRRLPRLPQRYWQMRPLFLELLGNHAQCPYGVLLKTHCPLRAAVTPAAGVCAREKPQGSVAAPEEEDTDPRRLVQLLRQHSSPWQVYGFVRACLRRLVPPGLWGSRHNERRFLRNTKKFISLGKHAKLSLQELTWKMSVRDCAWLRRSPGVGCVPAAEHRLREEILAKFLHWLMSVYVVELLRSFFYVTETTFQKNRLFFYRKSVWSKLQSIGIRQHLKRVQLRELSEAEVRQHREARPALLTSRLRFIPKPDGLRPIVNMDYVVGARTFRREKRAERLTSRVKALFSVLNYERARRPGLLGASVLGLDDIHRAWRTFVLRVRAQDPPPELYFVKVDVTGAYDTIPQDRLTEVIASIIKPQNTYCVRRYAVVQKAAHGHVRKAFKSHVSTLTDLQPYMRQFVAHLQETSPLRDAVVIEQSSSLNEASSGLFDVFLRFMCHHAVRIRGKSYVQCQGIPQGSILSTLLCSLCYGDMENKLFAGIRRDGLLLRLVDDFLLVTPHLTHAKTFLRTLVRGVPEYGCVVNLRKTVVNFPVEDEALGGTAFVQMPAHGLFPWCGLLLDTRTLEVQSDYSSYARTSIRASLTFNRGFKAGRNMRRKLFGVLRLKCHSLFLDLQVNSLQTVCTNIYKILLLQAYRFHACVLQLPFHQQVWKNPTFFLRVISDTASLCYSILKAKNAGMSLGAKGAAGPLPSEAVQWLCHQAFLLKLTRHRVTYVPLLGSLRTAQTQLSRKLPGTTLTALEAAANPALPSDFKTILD
T1 sequence (O60832 whole entry partner): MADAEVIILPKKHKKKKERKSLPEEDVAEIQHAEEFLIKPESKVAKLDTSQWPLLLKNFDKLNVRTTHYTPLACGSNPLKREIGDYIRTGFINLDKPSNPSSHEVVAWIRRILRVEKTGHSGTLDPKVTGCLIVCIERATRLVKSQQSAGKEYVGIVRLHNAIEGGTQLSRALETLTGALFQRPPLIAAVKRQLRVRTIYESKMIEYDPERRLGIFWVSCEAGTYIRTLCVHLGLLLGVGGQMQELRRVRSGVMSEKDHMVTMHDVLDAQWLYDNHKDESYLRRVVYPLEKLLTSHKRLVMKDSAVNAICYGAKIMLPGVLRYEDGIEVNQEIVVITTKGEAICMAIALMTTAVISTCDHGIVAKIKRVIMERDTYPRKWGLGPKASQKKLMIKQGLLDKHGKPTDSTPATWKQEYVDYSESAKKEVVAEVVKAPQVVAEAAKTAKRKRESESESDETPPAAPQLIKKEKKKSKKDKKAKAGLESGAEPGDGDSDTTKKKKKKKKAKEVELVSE
T1 sequence (Q9NY12 whole entry partner): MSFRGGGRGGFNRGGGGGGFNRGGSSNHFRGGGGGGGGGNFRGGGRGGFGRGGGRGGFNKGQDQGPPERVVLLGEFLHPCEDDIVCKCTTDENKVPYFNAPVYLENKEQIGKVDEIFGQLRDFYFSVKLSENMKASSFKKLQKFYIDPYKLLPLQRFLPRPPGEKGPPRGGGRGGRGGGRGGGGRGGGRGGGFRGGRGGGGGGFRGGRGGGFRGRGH
T1 sequence (Q9NX24 whole entry partner): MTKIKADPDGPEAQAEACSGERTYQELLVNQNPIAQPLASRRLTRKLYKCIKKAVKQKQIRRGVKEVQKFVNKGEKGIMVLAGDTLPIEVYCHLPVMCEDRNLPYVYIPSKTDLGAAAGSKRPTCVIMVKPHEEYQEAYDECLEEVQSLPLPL
T1 sequence (Q9NPE3 whole entry partner): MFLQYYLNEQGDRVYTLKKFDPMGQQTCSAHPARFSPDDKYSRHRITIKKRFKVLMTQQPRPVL
T1 sequence (Q9BUR4 whole entry partner): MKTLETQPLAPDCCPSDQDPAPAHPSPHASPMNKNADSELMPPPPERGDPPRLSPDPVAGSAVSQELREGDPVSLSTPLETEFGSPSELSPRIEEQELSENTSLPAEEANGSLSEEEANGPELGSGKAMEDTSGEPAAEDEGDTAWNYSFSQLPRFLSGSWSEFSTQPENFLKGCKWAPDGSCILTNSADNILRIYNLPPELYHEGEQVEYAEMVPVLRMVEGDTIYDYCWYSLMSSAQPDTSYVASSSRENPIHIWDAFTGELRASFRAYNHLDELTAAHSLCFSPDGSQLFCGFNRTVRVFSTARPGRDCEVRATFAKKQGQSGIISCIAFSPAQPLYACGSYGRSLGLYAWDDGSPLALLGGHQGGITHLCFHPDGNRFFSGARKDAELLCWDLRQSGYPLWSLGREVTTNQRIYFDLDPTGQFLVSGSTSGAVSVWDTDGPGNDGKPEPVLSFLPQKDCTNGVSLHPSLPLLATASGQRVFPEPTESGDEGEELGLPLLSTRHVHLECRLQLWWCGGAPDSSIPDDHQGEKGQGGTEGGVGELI

With `Nc1nc2nc[nH]c2c(=S)[nH]1` [6-thio-G, 6-thioguanine, reference compound] the GI50 (HCT116) was 1200 nM, the “histology of residual tumors” value [1] was “mostly “healthy” growing cancerous cells” and the GI50 (HCC4017) was 2000 nM. For the same compound, the GI50 (H2882) was 600 nM, the GI50 (HCC2429) was 700 nM and the “inhibition of telomerase activity (TRAP)” value (telomerase) was “no inhibition of telomerase activity was observed”. For the same compound, the “>4 TIFs per nucleus background subtracted” value (BJ cells) was 0, the GI50 (HCC827) was 1700 nM and the GI50 (H2009) was 3300 nM. It also gave a GI50 (A549) of 2300 nM, a GI50 (H2087) of 900 nM and a GI50 (HCC515) of 4900 nM. For the same compound, the “>4 TIFs per nucleus background subtracted” value (BJ-hTERT cells) was 0, the mortality ([2]; WT mice, 5 mg/kg daily) was “all mice died by the 15th day” and the weight loss ([2]; mouse, in vivo, 5 mg/kg) was “around 2 grams”. The GI50 (BJ) was greater than 100000 nM, the “telomere shortening (TRF)” value (BJ fibroblast cells) was “did not show enhanced telomere shortening” and the “effect on telomere length (TRF)” value (HCT116 cells) was “did not result in any significant effects on telomere length”. The GI50 (HCC15) was 1100 nM.

With `Nc1ncn([C@@H]2O[C@H](CO)[C@@H](O)[C@H]2O)c(=O)n1` [5-azacytidine] the “effect of pretreatment on sensitivity to 6-thio-dG” value (“effect of pretreatment” below) (H1693) was “no effect on the sensitivity”, the “effect of pretreatment” value (H1819) was “no effect on the sensitivity” and the “effect of pretreatment” value (H1993 cells) was “did increase sensitivity of the H1993 cells substantially”.
